{
  "source": "patent US20100260841A1",
  "about": "“Method of Treating Atherosclerosis, Dyslipidemias and Related Conditions” (priority 2007, published 2010)",
  "key": {"[1]": {"test_system": "lipid altering effects of ERN", "conditions": "patients, Compound E 150 mg with ERN"}, "[2]": {"test_system": "extended-release niacin (ERN) induced flushing", "conditions": "patients", "description": "(§1) Patients (N=412) were randomized to ERN 1 gram (given as Niaspan®, with no prior titration) plus compound E placebo, 18.75, 37.5, 75 or 150 mg, or double placebo for 4 weeks (acute phase) with doubling of the respective doses for the remaining 4 weeks (chronic phase). Patients reported flushing intensity using the validated Global Flushing Severity Score (GFSS); none/mild (0-3), moderate (4-6), severe (7-9) and extreme (10) in a daily eDiary. A subset of patients was randomized to compound E 150 mg versus placebo in a 4-week crossover safety study."}, "[3]": {"conditions": "patients, Compound E alone or coadministered with ERN", "description": "as §1"}},
  "data": [
    {"smiles": "CS(=O)(=O)c1cc(F)cc2c3c(n(Cc4ccc(Cl)cc4)c12)[C@@H](CC(=O)O)CC3", "note": "[Compound E]", "values": [
      {"measurement": "impact on the lipid altering effects of ERN", "setting": "[1]", "value": "did not significantly impact"},
      {"measurement": "acute phase flushing intensity compared to ERN alone", "setting": "[2]; Compound E plus ERN 1 gram, first 4 weeks, GFSS, dose-response p<0.001", "value": "significantly lower"},
      {"measurement": "chronic phase flushing intensity compared to ERN alone", "setting": "[2]; Compound E plus ERN, doubled doses, remaining 4 weeks, GFSS, dose-response p=0.021", "value": "significantly lower"},
      {"measurement": "tolerability and achievement of optimal therapeutic dosing of niacin", "setting": "[2]; Compound E with ERN treatment", "value": "significantly improved"},
      {"measurement": "flushing intensity versus ERN alone at each coadministered dose", "setting": "[2]; each coadministered dose of Compound E (18.75, 37.5, 75 or 150 mg), p<0.05", "value": "significantly (p<0.05) lower flushing intensity"},
      {"measurement": "incidence of adverse experiences", "setting": "[3]", "value": "low incidence"}
    ]}
  ]
}
